Patent US12509431B2, “1,4-dihydroquinazolinone compounds and uses thereof” (Edgewise Therapeutics, Inc., priority 2022, dated 2025)

Assays:
Format in all cases: biochemical
Settings in all cases: Table 8
[1] = molecular target: T1, Porcine Ventricle myofibrils (left ventricle of Yucatan minipigs) (Sus scrofa, UniProt P79293); experiment: Myofibril ATPase assay (PK/LDH NADH-coupled), ventricle myofibrils
T1 construct: Myofibrils from porcine cardiac muscle was isolated from the left ventricle of Yucatan minipigs; tissue Exemplar Genetics; host or cells: left ventricle of Yucatan minipigs
Experimental: (§1) Myofibril ATPase assays are known in the art to be useful in evaluating small molecules for the treatment of HCM and other cardiac indications. Myosin ATPase activity is assessed by using a coupled reaction system, in which ADP generated by the myosin ATPase function is coupled to the disappearance of NADH through the pyruvate kinase/lactate dehydrogenase (PK-LDH) system. ATPase activity produces ADP, which is used as a substrate for PK to produce pyruvate and regenerate ATP. The pyruvate is then used as a substrate by LDH to oxidize NADH to NAD+. The rate of the reaction is monitored through the time-dependent disappearance of NADH using absorbance at 340 nm, which, when the couple system is in stoichiometric excess, is directly correlated to the ATPase activity of the myosin. Inhibition of ATPase activity by the assayed compounds is indicated by a reduced rate of NADH loss, relative to vehicle-treated controls, over the experimental time window. Rabbit Skeletal and Porcine Ventricle are the primary sources of myofibril material.
(§2) Materials: The following stock solutions and reagents were used in the Myofibril ATPase Assay:
(§3) Stock Solutions of pCa buffer. Combine PIPES, CaCl2), and EGTA solutions with water. Adjust pH to 7.0 and bring final volume to 100 mL.
(§4) Buffer A & Buffer B. Prepare buffers A and B according to the table below.
(§5) Myofibril ATPase Assay Procedure: BSA, ATP, NADH, PEP, and DTT solutions were thawed at room temperature, then transferred to ice. Pellet-frozen myofibrils were transferred with approximately twice the required volume into a sufficiently large tube and capped. Myofibrils were thawed by rolling in a water bath for approximately 15 min at room temperature and cooled on ice. Buffers A and B were prepared by adjusting volumes as necessary for required number of wells and stored on ice. 0.5 μL of the compounds to be assayed were added into wells. 25 μL of Buffer A was dispensed into the wells, followed by 25 μL of Buffer B. The wells were measured for absorbance at 340 nm, using a kinetic protocol in which the wells are read every 1.5-2 min for 75 min. Assay data analysis was performed using a python script that filtered the raw data to retain those points falling between a starting and ending time and between a maximum and minimum absorbance, then used the filtered time-domain 340 nm absorbance data in each well to calculate a slope via linear regression analysis in units of mAU/min. Compound slopes were normalized between 100% and 0% activity, where 100% represented the slope of wells containing only compound vehicle, and fit to a 4-parameter logistic model. In addition to the fit parameters, the EC25% is calculated, relative to the 100% normalized value. In the case of inhibitors, EC50% is also calculated, if available. Fit parameters, calculated effective concentrations, filtered raw data, and calculated slopes were exported, in addition to compound-specific graphs of normalized ATPase activity versus concentration in μM.
Cardiac Myofibril Isolation:
Myofibrils from porcine cardiac muscle was isolated from the left ventricle of Yucatan minipigs. Myofibrils were prepared using a method based upon those described in Herrmann et al. (1993) and summarized here. Minced tissue was homogenized for 50 sec with a Polytron homogenizer into 10 volumes (relative to weight in grams) of Isolation Buffer A (75 mM KCl, 10 mM Imidazole, 2 mM MgCl2, 2 mM EGTA, 1 mM NaN3, 1% v/v Triton X-100) supplemented with 4 mM Phosphocreatine, 1 mM ATP, 50 mM BDM, 1 mM DTT, 1 mM Benzamide HCl, 0.1 mM PMSF, 10 μM leupeptin, 5 μM pepstatin, and 10 mM EDTA. The myofibrils were recovered by centrifugation (Beckman Allegra 6R, 1200 g, 15 min) and resuspended in 10 volumes Isolation Buffer B (Buffer A above without supplemental reagents). The myofibrils were further homogenized described above and recovered by centrifugation for 7 mins. Cellular membranes and debris were removed by 3 washes in Isolation Buffer B, centrifuging each as before. […]

[2] = test system: Porcine Atria myofibrils; experiment: Myofibril ATPase assay (PK/LDH NADH-coupled), atria myofibrils
Experimental: as §5

[3] = test system: Rabbit Skeletal myofibrils (rabbit psoas muscle); experiment: Myofibril ATPase assay (PK/LDH NADH-coupled), skeletal myofibrils
Experimental: as §1, §2, §3, §4, §5
Skeletal Myofibril Isolation:
Myofibrils from various animals and tissue types were acquired from a variety of sources: rabbit psoas muscle was purchased from Pel-Freez Biologicals (Rogers, AR) and porcine cardiac muscle was purchased from Exemplar Genetics. All myofibrils were prepared using a method based upon those described in Herrmann et al. (1993) and summarized here. Minced tissue was homogenized for 50 sec with a Polytron homogenizer into 10 volumes (relative to weight in grams) of Isolation Buffer A (50 mM Tris, pH 8.0, 0.1 M potassium acetate, 5 mM KCl, 2 mM DTT, 5 mM EDTA, 0.5% v/v Triton X-100) supplemented with 0.1 mM PMSF, 10 μM leupeptin, 5 μM pepstatin, and 0.5 mM sodium azide. The myofibrils were recovered by centrifugation (Beckman Allegra 6R, 1200 g, 10 min) and resuspended in 10 volumes Isolation Buffer B (Buffer A above without protease inhibitors or sodium azide). The myofibrils were further homogenized as before and recovered by centrifugation. […]

T1 sequence (P79293 whole entry): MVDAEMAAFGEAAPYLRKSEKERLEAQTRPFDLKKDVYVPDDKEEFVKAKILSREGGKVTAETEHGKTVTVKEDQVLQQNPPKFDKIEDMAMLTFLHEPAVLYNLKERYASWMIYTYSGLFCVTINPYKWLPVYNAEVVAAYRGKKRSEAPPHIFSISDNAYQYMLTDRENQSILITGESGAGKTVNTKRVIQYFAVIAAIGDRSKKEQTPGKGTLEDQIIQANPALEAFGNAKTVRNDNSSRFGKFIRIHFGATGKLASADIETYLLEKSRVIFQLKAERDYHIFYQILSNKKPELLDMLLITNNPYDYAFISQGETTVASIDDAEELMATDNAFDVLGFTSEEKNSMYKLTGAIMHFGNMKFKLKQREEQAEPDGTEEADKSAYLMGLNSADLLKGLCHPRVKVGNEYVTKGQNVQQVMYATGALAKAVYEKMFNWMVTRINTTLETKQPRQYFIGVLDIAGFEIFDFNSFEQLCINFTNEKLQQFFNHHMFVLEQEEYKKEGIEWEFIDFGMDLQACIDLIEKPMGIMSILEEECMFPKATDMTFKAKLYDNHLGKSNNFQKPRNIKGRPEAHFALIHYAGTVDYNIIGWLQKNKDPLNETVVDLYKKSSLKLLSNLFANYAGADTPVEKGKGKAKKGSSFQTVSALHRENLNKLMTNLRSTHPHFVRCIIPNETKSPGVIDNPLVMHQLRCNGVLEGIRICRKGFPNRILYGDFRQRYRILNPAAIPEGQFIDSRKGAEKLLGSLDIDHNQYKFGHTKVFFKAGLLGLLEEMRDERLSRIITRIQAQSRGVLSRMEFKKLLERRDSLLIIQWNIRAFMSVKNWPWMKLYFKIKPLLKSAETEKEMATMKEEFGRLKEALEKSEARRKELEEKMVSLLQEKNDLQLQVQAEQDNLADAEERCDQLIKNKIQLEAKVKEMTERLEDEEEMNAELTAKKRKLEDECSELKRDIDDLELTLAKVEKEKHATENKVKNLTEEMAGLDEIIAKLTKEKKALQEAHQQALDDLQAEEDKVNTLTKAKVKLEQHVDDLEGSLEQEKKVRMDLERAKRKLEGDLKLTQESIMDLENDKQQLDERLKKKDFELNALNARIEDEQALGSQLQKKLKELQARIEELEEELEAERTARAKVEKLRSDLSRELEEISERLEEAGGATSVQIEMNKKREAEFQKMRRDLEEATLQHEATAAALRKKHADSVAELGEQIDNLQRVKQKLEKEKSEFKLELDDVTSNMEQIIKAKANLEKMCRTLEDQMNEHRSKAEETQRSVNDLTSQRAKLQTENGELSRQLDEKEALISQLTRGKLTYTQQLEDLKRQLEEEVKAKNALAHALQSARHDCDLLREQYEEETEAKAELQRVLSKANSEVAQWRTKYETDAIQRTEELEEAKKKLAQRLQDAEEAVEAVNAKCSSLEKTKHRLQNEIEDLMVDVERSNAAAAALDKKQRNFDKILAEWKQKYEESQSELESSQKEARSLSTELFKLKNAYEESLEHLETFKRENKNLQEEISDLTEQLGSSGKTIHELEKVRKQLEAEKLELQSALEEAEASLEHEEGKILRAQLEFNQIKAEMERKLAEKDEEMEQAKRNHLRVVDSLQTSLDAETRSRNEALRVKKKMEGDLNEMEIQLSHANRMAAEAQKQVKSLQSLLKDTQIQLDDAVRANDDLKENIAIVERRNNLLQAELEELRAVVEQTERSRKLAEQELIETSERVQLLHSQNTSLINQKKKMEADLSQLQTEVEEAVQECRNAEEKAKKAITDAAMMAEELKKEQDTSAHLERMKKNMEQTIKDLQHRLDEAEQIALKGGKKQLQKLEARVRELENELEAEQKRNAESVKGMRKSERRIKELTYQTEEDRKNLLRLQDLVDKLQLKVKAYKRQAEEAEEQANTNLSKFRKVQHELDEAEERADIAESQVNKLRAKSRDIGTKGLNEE

Row | Porcine Ventricle IC25 [1] [µM] | Porcine Atria IC25 [2] [µM] | Rabbit Psoas IC25 [3] [µM] | Compound
1 | 0.0457 | 0.02 | 0.0115 | C[C@H](NC(=O)CN1Cc2cc(F)c(F)cc2NC1=O)c1ccc(C#N)cc1F [Compound B45, N-[(1S)-1-(4-cyano-2-fluorophenyl)ethyl]-2-(6,7-difluoro-2-oxo-1,4-dihydroquinazolin-3-yl)acetamide]
2 | 1.847 | 0.58 | 0.6601 | Cc1cnncc1[C@@H](C)NC(=O)CN1Cc2c(ccc(F)c2F)NC1=O [Compound B46]
3 | 62.1 | 100.00 | 12.65 | C[C@H](NC(=O)[C@H](CC1CC1)N1Cc2c(ccc(F)c2F)NC1=O)c1ccc(F)cc1F [Compound B48]
4 | 45.96 | 6.51 | 100 | C[C@@H](NC(=O)[C@@H](CC1CC1)N1Cc2c(ccc(F)c2F)NC1=O)c1ccc(F)cc1F [Compound B49]
5 | 42.56 | 100.00 | 100 | CC(C)C[C@@H](C(=O)N[C@@H](C)c1ncc(F)cc1F)N1Cc2c(ccc(F)c2F)NC1=O [Compound B50]
6 | 100 | 49.07 | 100 | CC(C)C[C@H](C(=O)N[C@H](C)c1ncc(F)cc1F)N1Cc2c(ccc(F)c2F)NC1=O [Compound B51]
7 | 1.456 | 0.42 | 3.964 | C[C@@H](NC(=O)CN1Cc2c(ccc(F)c2F)NC1=O)c1cc(C#N)c(F)cn1 [Compound B52]
8 | 0.9628 | 0.11 | 0.5796 | Cc1nc(C#N)cnc1[C@@H](C)NC(=O)CN1Cc2c(ccc(F)c2F)NC1=O [Compound B54]
9 | 1.991 | 1.64 | 1.887 | Cc1cc(F)cc2c1CN(CC(=O)N[C@H](C)c1ccc(C#N)cc1F)C(=O)N2 [Compound B56]
10 | 0.0899 | 0.04 | 0.0139 | Cc1cc(F)cc2c1CN(CC(=O)N[C@@H](C)c1ccc(C#N)cc1F)C(=O)N2 [Compound B57]
11 | 4.23 | 1.02 | 6.712 | Cc1cc(F)cc2c1NC(=O)N(CC(=O)N[C@H](C)c1ccc(C#N)cc1F)C2 [Compound B58]
12 | 0.9519 | 0.63 | 0.0818 | Cc1cc(F)cc2c1NC(=O)N(CC(=O)N[C@@H](C)c1ccc(C#N)cc1F)C2 [Compound B59, N-[(1S)-1-(4-cyano-2-fluorophenyl)ethyl]-2-(6-fluoro-8-methyl-2-oxo-1,4-dihydroquinazolin-3-yl)acetamide]
13 | 100 | 0.80 | 2.769 | CC(C)C[C@@H](C(=O)N[C@@H](C)c1ccc(F)cc1F)N1Cc2c(ccc(F)c2F)NC1=O [Compound B60]
14 | 100 | 100.00 | 100 | CC(C)C[C@H](C(=O)N[C@H](C)c1ccc(F)cc1F)N1Cc2c(ccc(F)c2F)NC1=O [Compound B61]
15 | 0.0415 | 0.04 | 0.0143 | O=C(CN1Cc2c(ccc(F)c2F)NC1=O)N[C@@H]1COCc2cc(F)cc(F)c21 [Compound B62]
16 | 100 | 1.81 | 100 | O=C(CN1Cc2c(ccc(F)c2F)NC1=O)N[C@H]1COCc2cc(F)cc(F)c21 [Compound B63]
17 | 0.5798 | 0.52 | 0.7773 | N#Cc1cnc2c(c1)OC[C@H]2NC(=O)CN1Cc2c(ccc(F)c2F)NC1=O [Compound B64]
18 | 100 | 100.00 | 100 | CC(C)C[C@@H](C(=O)N[C@H](C)c1ccc(F)cc1F)N1Cc2cc(F)ccc2NC1=O [Compound B66]
19 | 1.168 | 2.03 | 58.62 | Cc1cc([C@@H](C)NC(=O)CN2Cc3c(ccc(F)c3F)NC2=O)ncc1F [Compound B68]
20 | 1.114 | 0.35 | 1.912 | Cc1cc(C(C)NC(=O)CN2Cc3c(ccc(F)c3F)NC2=O)ncc1Cl (stereo not drawn) [Compound B70]
21 | 40.66 | 43.18 | 100 | Cc1noc([C@@H](C)NC(=O)CN2Cc3c(ccc(F)c3F)NC2=O)n1 [Compound B71]
22 | 100 | 2.25 | 1.903 | Cc1noc([C@H](C)NC(=O)CN2Cc3c(ccc(F)c3F)NC2=O)n1 [Compound B72]
23 | 2.134 | 1.22 | 23.3 | C[C@@H](NC(=O)CN1Cc2c(ccc(F)c2F)NC1=O)c1cc2c(cn1)OCCN2C [Compound B73]
24 | 0.0144 | 0.02 | 0.09136 | O=C(CN1Cc2c(ccc(F)c2F)NC1=O)N[C@@H]1COCc2cc(F)ccc21 [Compound B75]
25 | 0.0768 | 0.04 | 0.0488 | CC(NC(=O)CN1Cc2c(ccc(F)c2F)NC1=O)c1ncc(C#N)cc1F (stereo not drawn) [Compound B77]
26 | 0.1091 | 0.04 | 0.0417 | CC(NC(=O)CN1Cc2cc(F)ccc2NC1=O)c1ccc(C#N)cc1F (stereo not drawn) [Compound B78]
27 | 0.4454 | 0.04 | 0.2662 | COc1cc(C#N)ncc1[C@@H](C)NC(=O)CN1Cc2c(ccc(F)c2F)NC1=O [Compound B79]
28 | 2.778 | 0.06 | 8.828 | COc1cc(C#N)ncc1[C@H](C)NC(=O)CN1Cc2c(ccc(F)c2F)NC1=O [Compound B80]
29 | 0.4092 | 0.09 | 5.776 | C[C@@H](NC(=O)CN1Cc2c(ccc(F)c2F)NC1=O)c1ncc(Cl)cc1F [Compound B81]
30 | 0.0561 | 0.03 | 0.0183 | C[C@H](NC(=O)CN1Cc2c(ccc(F)c2F)NC1=O)c1ncc(Cl)cc1F [Compound B82]
